Active and inactive are the calls of the source.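 How the source made its calls: active means GFP ratio to DMSO above 1.5 or below 0.66; inactive means the rest.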
Experiments:
Assay in all cases: TOR pathway GFP reporter clone modulation in yeast – S. cerevisiae, GFP-tagged clone panel, flow cytometry (AID 504473);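 further: median GFP fluorescence of the cells measured by high-throughput flow cytometry; test concentration not given here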
[1] = system: YMR251W-A; conditions: S. cerevisiae GFP-tagged strains, 3 h
[2] = system: YLR185W; conditions: S. cerevisiae GFP-tagged strains, 3 h
[3] = system: YML026C; conditions: S. cerevisiae GFP-tagged strains, 3 h
[4] = system: YEL071W; conditions: S. cerevisiae GFP-tagged strains, 3 h
[5] = system: YLR058C; conditions: S. cerevisiae GFP-tagged strains, 3 h
[6] = system: YPL150W; conditions: S. cerevisiae GFP-tagged strains, 3 h
[7] = system: YGL135W; conditions: S. cerevisiae GFP-tagged strains, 3 h
[8] = system: YPL131W; conditions: S. cerevisiae GFP-tagged strains, 3 h
[9] = system: YPR132W; conditions: S. cerevisiae GFP-tagged strains, 3 h
[10] = system: YBR208C; conditions: S. cerevisiae GFP-tagged strains, 3 h
[11] = system: YIL069C; conditions: S. cerevisiae GFP-tagged strains, 3 h
[12] = system: YMR105C; conditions: S. cerevisiae GFP-tagged strains, 3 h
[13] = system: YHR141C; conditions: S. cerevisiae GFP-tagged strains, 3 h
[14] = system: YKL119C; conditions: S. cerevisiae GFP-tagged strains, 3 h
[15] = system: YGL147C; conditions: S. cerevisiae GFP-tagged strains, 3 h
[16] = system: YEL060C; conditions: S. cerevisiae GFP-tagged strains, 3 h
[17] = system: YER081W; conditions: S. cerevisiae GFP-tagged strains, 3 h
[18] = system: YKR093W; conditions: S. cerevisiae GFP-tagged strains, 3 h
[19] = system: YKL103C; conditions: S. cerevisiae GFP-tagged strains, 3 h
[20] = system: YNL068C; conditions: S. cerevisiae GFP-tagged strains, 3 h
[21] = system: YCR005C; conditions: S. cerevisiae GFP-tagged strains, 3 h
[22] = system: YDL204W; conditions: S. cerevisiae GFP-tagged strains, 3 h
[23] = system: YHR144C; conditions: S. cerevisiae GFP-tagged strains, 3 h
[24] = system: YLR142W; conditions: S. cerevisiae GFP-tagged strains, 3 h
[25] = system: YOR063W; conditions: S. cerevisiae GFP-tagged strains, 3 h
[26] = system: YJL144W; conditions: S. cerevisiae GFP-tagged strains, 3 h
[27] = system: YHR203C; conditions: S. cerevisiae GFP-tagged strains, 3 h
[28] = system: YOR173W; conditions: S. cerevisiae GFP-tagged strains, 3 h
[29] = system: YML128C; conditions: S. cerevisiae GFP-tagged strains, 3 h
[30] = system: YAL061W; conditions: S. cerevisiae GFP-tagged strains, 3 h
[31] = system: YOR375C; conditions: S. cerevisiae GFP-tagged strains, 3 h
[32] = system: YHR018C; conditions: S. cerevisiae GFP-tagged strains, 3 h
[33] = system: YDR453C; conditions: S. cerevisiae GFP-tagged strains, 3 h
[34] = system: YLR367W; conditions: S. cerevisiae GFP-tagged strains, 3 h
[35] = system: YDL130W; conditions: S. cerevisiae GFP-tagged strains, 3 h
[36] = system: YGR088W; conditions: S. cerevisiae GFP-tagged strains, 3 h
[37] = system: YIL066C; conditions: S. cerevisiae GFP-tagged strains, 3 h
[38] = system: YCL064C; conditions: S. cerevisiae GFP-tagged strains, 3 h
[39] = system: YLR237W; conditions: S. cerevisiae GFP-tagged strains, 3 h
[40] = system: YPR145W; conditions: S. cerevisiae GFP-tagged strains, 3 h
[41] = system: YHL021C; conditions: S. cerevisiae GFP-tagged strains, 3 h
[42] = system: YIL051C; conditions: S. cerevisiae GFP-tagged strains, 3 h
[43] = system: YCR002C; conditions: S. cerevisiae GFP-tagged strains, 3 h
[44] = system: YIL043C; conditions: S. cerevisiae GFP-tagged strains, 3 h
[45] = system: YGR034W; conditions: S. cerevisiae GFP-tagged strains, 3 h
[46] = system: YJL056C; conditions: S. cerevisiae GFP-tagged strains, 3 h
[47] = system: YLL039C; conditions: S. cerevisiae GFP-tagged strains, 3 h
[48] = system: YOR182C; conditions: S. cerevisiae GFP-tagged strains, 3 h
[49] = system: YKR039W; conditions: S. cerevisiae GFP-tagged strains, 3 h
[50] = system: YBR139W; conditions: S. cerevisiae GFP-tagged strains, 3 h
[51] = system: YPR184W; conditions: S. cerevisiae GFP-tagged strains, 3 h
[52] = system: YDR399W; conditions: S. cerevisiae GFP-tagged strains, 3 h
[53] = system: YGL062W; conditions: S. cerevisiae GFP-tagged strains, 3 h
[54] = system: YML063W; conditions: S. cerevisiae GFP-tagged strains, 3 h
[55] = system: YDR382W; conditions: S. cerevisiae GFP-tagged strains, 3 h
[56] = system: YML004C; conditions: S. cerevisiae GFP-tagged strains, 3 h
[57] = system: YER156C; conditions: S. cerevisiae GFP-tagged strains, 3 h
[58] = biological target: General amino acid permease AGP1 (Saccharomyces cerevisiae S288c) (UniProt P25376); conditions: S. cerevisiae GFP-tagged strains, 3 h, YCL025C
Chain of General amino acid permease AGP1 (Saccharomyces cerevisiae S288c) (P25376 whole entry, looked up): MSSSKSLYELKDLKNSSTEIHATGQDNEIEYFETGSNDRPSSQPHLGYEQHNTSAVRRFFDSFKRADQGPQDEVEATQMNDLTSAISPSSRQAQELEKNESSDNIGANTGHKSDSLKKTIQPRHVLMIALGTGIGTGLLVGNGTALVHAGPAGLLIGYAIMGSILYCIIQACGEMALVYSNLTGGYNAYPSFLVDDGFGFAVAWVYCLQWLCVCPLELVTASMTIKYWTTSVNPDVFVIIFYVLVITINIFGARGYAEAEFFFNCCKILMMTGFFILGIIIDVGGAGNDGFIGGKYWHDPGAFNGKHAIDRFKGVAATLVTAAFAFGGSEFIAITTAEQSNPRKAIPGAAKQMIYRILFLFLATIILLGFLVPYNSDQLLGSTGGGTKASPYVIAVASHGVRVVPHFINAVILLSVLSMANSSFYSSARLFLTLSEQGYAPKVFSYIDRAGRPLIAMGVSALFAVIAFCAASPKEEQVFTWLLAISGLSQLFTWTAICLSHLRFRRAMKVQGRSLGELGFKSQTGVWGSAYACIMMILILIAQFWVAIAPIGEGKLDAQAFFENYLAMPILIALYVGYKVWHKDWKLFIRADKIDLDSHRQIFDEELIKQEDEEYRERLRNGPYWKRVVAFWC

[59] = system: YHR087W; conditions: S. cerevisiae GFP-tagged strains, 3 h
[60] = system: YGR019W; conditions: S. cerevisiae GFP-tagged strains, 3 h
[61] = system: YER117W; conditions: S. cerevisiae GFP-tagged strains, 3 h
[62] = system: YOL052C-A; conditions: S. cerevisiae GFP-tagged strains, 3 h
[63] = system: YLL026W; conditions: S. cerevisiae GFP-tagged strains, 3 h
[64] = system: YOR136W; conditions: S. cerevisiae GFP-tagged strains, 3 h
[65] = system: YFR031C-A; conditions: S. cerevisiae GFP-tagged strains, 3 h
[66] = system: YAL060W; conditions: S. cerevisiae GFP-tagged strains, 3 h
[67] = system: YFR053C; conditions: S. cerevisiae GFP-tagged strains, 3 h
[68] = system: YMR120C; conditions: S. cerevisiae GFP-tagged strains, 3 h
[69] = system: YNL214W; conditions: S. cerevisiae GFP-tagged strains, 3 h
[70] = system: YML034W; conditions: S. cerevisiae GFP-tagged strains, 3 h
[71] = system: YDL205C; conditions: S. cerevisiae GFP-tagged strains, 3 h
[72] = system: YKL086W; conditions: S. cerevisiae GFP-tagged strains, 3 h
[73] = system: YBL087C; conditions: S. cerevisiae GFP-tagged strains, 3 h
[74] = system: YBR072W; conditions: S. cerevisiae GFP-tagged strains, 3 h
[75] = system: YNL015W; conditions: S. cerevisiae GFP-tagged strains, 3 h
[76] = system: YNL112W; conditions: S. cerevisiae GFP-tagged strains, 3 h
[77] = system: YJR148W; conditions: S. cerevisiae GFP-tagged strains, 3 h
[78] = system: YEL007W; conditions: S. cerevisiae GFP-tagged strains, 3 h
[79] = system: YOR371C; conditions: S. cerevisiae GFP-tagged strains, 3 h
[80] = system: YIL052C; conditions: S. cerevisiae GFP-tagged strains, 3 h
[81] = system: YLR287C-A; conditions: S. cerevisiae GFP-tagged strains, 3 h
[82] = system: YLR109W; conditions: S. cerevisiae GFP-tagged strains, 3 h
[83] = system: YBR248C; conditions: S. cerevisiae GFP-tagged strains, 3 h
[84] = system: YGL036W; conditions: S. cerevisiae GFP-tagged strains, 3 h
[85] = system: YOR038C; conditions: S. cerevisiae GFP-tagged strains, 3 h
[86] = system: YMR307W; conditions: S. cerevisiae GFP-tagged strains, 3 h
[87] = system: YPL111W; conditions: S. cerevisiae GFP-tagged strains, 3 h
[88] = system: YKR094C; conditions: S. cerevisiae GFP-tagged strains, 3 h
[89] = system: YER151C; conditions: S. cerevisiae GFP-tagged strains, 3 h
[90] = system: YGR121C; conditions: S. cerevisiae GFP-tagged strains, 3 h
[91] = system: YPL265W; conditions: S. cerevisiae GFP-tagged strains, 3 h
[92] = system: YEL063C; conditions: S. cerevisiae GFP-tagged strains, 3 h
[93] = system: YNL142W; conditions: S. cerevisiae GFP-tagged strains, 3 h
[94] = system: YNR001C; conditions: S. cerevisiae GFP-tagged strains, 3 h
[95] = system: YPL220W; conditions: S. cerevisiae GFP-tagged strains, 3 h
[96] = system: YDR070C; conditions: S. cerevisiae GFP-tagged strains, 3 h

**Q.** Which results are given for `CNc1nc(N)c([N+](=O)[O-])c(Nc2cccc(F)c2)n1`?
**A.** GFP ratio to DMSO [1]: 1.64; GFP ratio to DMSO [2]: 0.893 (inactive); GFP ratio to DMSO [3]: 0.557; GFP ratio to DMSO [4]: 2.83; GFP ratio to DMSO [5]: 1.02 (inactive); GFP ratio to DMSO [6]: 0.959 (inactive); GFP ratio to DMSO [7]: 0.899 (inactive); GFP ratio to DMSO [8]: 0.93 (inactive); GFP ratio to DMSO [9]: 0.841 (inactive); GFP ratio to DMSO [10]: 2.34; GFP ratio to DMSO [11]: 0.764 (inactive); GFP ratio to DMSO [12]: 1.72; GFP ratio to DMSO [13]: 0.925 (inactive); GFP ratio to DMSO [14]: 0.959 (inactive); GFP ratio to DMSO [15]: 0.799 (inactive); GFP ratio to DMSO [16]: 1.88; GFP ratio to DMSO [17]: 1.07 (inactive); GFP ratio to DMSO [18]: 4.31; GFP ratio to DMSO [19]: 2.2; GFP ratio to DMSO [20]: 1.09 (inactive); GFP ratio to DMSO [21]: 4.96; GFP ratio to DMSO [22]: 1.33 (inactive); GFP ratio to DMSO [23]: 0.778 (inactive); GFP ratio to DMSO [24]: 0.857 (inactive); GFP ratio to DMSO [25]: 0.919 (inactive); GFP ratio to DMSO [26]: 1.39 (inactive); GFP ratio to DMSO [27]: 0.857 (inactive); GFP ratio to DMSO [28]: 1.45 (inactive); GFP ratio to DMSO [29]: 1.68; GFP ratio to DMSO [30]: 1.57; GFP ratio to DMSO [31]: 1.83; GFP ratio to DMSO [32]: 1.14 (inactive); GFP ratio to DMSO [33]: 1.5 (inactive); GFP ratio to DMSO [34]: 0.896 (inactive); GFP ratio to DMSO [35]: 0.917 (inactive); GFP ratio to DMSO [36]: 1.71; GFP ratio to DMSO [37]: 1.04 (inactive); GFP ratio to DMSO [38]: 1.15 (inactive); GFP ratio to DMSO [39]: 0.775 (inactive); GFP ratio to DMSO [40]: 1.98; GFP ratio to DMSO [41]: 1.99; GFP ratio to DMSO [42]: 1.3 (inactive); GFP ratio to DMSO [43]: 0.939 (inactive); GFP ratio to DMSO [44]: 1.04 (inactive); GFP ratio to DMSO [45]: 0.814 (inactive); GFP ratio to DMSO [46]: 0.886 (inactive); GFP ratio to DMSO [47]: 1.49 (inactive); GFP ratio to DMSO [48]: 0.657 (inactive); GFP ratio to DMSO [49]: 4.91; GFP ratio to DMSO [50]: 1.12 (inactive); GFP ratio to DMSO [51]: 1.61; GFP ratio to DMSO [52]: 0.957 (inactive); GFP ratio to DMSO [53]: 2.1; GFP ratio to DMSO [54]: 0.897 (inactive); GFP ratio to DMSO [55]: 0.981 (inactive); GFP ratio to DMSO [56]: 1.28 (inactive); GFP ratio to DMSO [57]: 1.08 (inactive); GFP ratio to DMSO [58]: 1.69; GFP ratio to DMSO [59]: 1.64; GFP ratio to DMSO [60]: 1.42 (inactive); GFP ratio to DMSO [61]: 0.434; GFP ratio to DMSO [62]: 2.48; GFP ratio to DMSO [63]: 1.75; GFP ratio to DMSO [64]: 1.43 (inactive); GFP ratio to DMSO [65]: 0.845 (inactive); GFP ratio to DMSO [66]: 2.27; GFP ratio to DMSO [67]: 1.46 (inactive); GFP ratio to DMSO [68]: 0.686 (inactive); GFP ratio to DMSO [69]: 0.945 (inactive); GFP ratio to DMSO [70]: 0.944 (inactive); GFP ratio to DMSO [71]: 0.958 (inactive); GFP ratio to DMSO [72]: 1.17 (inactive); GFP ratio to DMSO [73]: 0.567; GFP ratio to DMSO [74]: 1.53; GFP ratio to DMSO [75]: 1.62; GFP ratio to DMSO [76]: 0.894 (inactive); GFP ratio to DMSO [77]: 3.13; GFP ratio to DMSO [78]: 0.993 (inactive); GFP ratio to DMSO [79]: 0.944 (inactive); GFP ratio to DMSO [80]: 0.769 (inactive); GFP ratio to DMSO [81]: 0.753 (inactive); GFP ratio to DMSO [82]: 1.39 (inactive); GFP ratio to DMSO [83]: 1.03 (inactive); GFP ratio to DMSO [84]: 0.845 (inactive); GFP ratio to DMSO [85]: 1.15 (inactive); GFP ratio to DMSO [86]: 0.845 (inactive); GFP ratio to DMSO [87]: 2.48; GFP ratio to DMSO [88]: 0.898 (inactive); GFP ratio to DMSO [89]: 1.03 (inactive); GFP ratio to DMSO [90]: 1.38 (inactive); GFP ratio to DMSO [91]: 1.93; GFP ratio to DMSO [92]: 1.23 (inactive); GFP ratio to DMSO [93]: 9.4; GFP ratio to DMSO [94]: 1.57; GFP ratio to DMSO [95]: 1.04 (inactive); GFP ratio to DMSO [96]: 2.45
